Test results published in US12605354B2, “Azelaic acid esters in the treatment or prevention of dyslipidemia and associated conditions” (NEW FRONTIER LABS, LLC, priority 2020, dated 2026).
“Also recorded” adds a separate entry of the source. Marks after values point to notes of the source that are not given here.

Key:
Type in all cases: in vivo, human
[1] = tested on: overweight to obese males; assay: 21-day oral DEA study: blood lipid levels and lipid ratios; conditions: for LDL/triglycerides / LDL/HDL / Triglycerides/HDL / Non-cholesterol HDL/HDL / Cholesterol, total/HDL / HDL cholesterol / LDL cholesterol / Non-cholesterol HDL / Triglycerides / Cholesterol, total: D21 post-treatment, 21 daily oral doses of 1 mg/kg, mean; for decrease of LDL/HDL: p=0.02; for Cholesterol/HDL, decrease / LDL/HDL, decrease: significant effect
Description: Seventeen subjects were recruited by sampling a large population at risk for T2D (according to convenience sample; a statistical method of drawing representative data) to measure the changes in glucose, lipid and insulin measurements after an OGTT after the subjects had been treated for 21 days.
(§1) The subjects were overweight to obese males with body mass indices (BMIs) ranging from 27.2 to 43.6 kg/m^2, glycated hemoglobin A1c (HbA1c) of 5.0-6.2% and insulin levels of 8.8-52 μU/mL. The study was conducted by Clinical Trials of Texas, Inc. in San Antonio, TX. The cohort represented a population at risk for the development of T2D. The study was restricted to male participants to control for the variability of insulin sensitivity associated with the menstrual cycle. The subjects received 21 daily oral doses (“q1d”) of 1 mg/kg DEA. An OGTT, in which 75 grams of glucose in a total volume of 300 mL was administered orally to subjects, was performed on Day 0 and again on Day 21 and glucose measurements performed at −30, −5 and 0 min, insulin measurements at −30 and 0 min, and both glucose measurements and insulin measurements at 30, 60, 90, 120 and 180 minutes, where “0 min” is the time at which the glucose solution was administered. The 180-minute time point was selected to gain an early insight into the possible signal of drug action. Blood lipid levels (triglycerides, cholesterol, HDL, non-cholesterol HDL and LDL) were measured before the onset of treatment on Day 0 and again on Day 21. The error of the assays was <5% [36].
The results of the various marker measurements at Day 0 and Day 21 were compared using both the paired Students T-test and the Wilcoxon signed rank test. The results of both calculations are provided; the p-value from the paired Student T-test first, followed by the p-value from the Wilcoxon signed rank test. Generalized Estimating Equations and bootstrapping were used to verify the results generated with other methods. Fasting glucose was calculated as the average of the −30, −5, and 0-minute measurements and fasting insulin was calculated as the average of the −30- and 0-minute measurements. Spearman's correlation coefficient was calculated for the relationship between A1c and pre-treatment fasting plasma glucose versus post-treatment fasting plasma glucose. Area under the curve (AUC) was calculated over the 180-minute time span of the OGTT. All analyses were performed using the open language engine R 3.4.4. Statistical significance was at the α=0.05 level.

[2] = tested on: overweight to obese males; assay: 21-day oral DEA study: tolerability, adverse effects
Experimental: as §1

[3] = tested on: subject, with diet induced insulin resistance and diabetes; assay: Example 2: fasting blood lipids after buccal or gastric delivery of DEA; conditions: for TC, triglyceride, and Calc LDL levels and TC/HDL ratio: all tested dosages vs 0 mg/kg
Description: Described in this example is an evaluation of the effects of alkyl azelates, such as DEA, on certain markers of insulin resistance and dyslipidemia, namely, blood plasma glucose, insulin levels and/or lipid levels, when administered either for buccal delivery or for gastric delivery in a subject, with diet induced insulin resistance and diabetes with a BMI of approximately 27.
Diethyl azelate was synthesized from azelaic acid and ethyl alcohol sing the standard acid-catalyzed esterification followed by fractional distillation to produce DEA to 99% purity as determined by chromatography-mass spectrometry (GC-MS). The 99% distilled DEA distillation product was administered in unformulated, unencapsulated, etc. form (i.e., “as is”) for buccal delivery as indicated below.
For gastric delivery, the 99% DEA distillation product was placed in a hard gelatin capsule, size 00 (PureCaps USA, Philmont, NY) and administered for gastric delivery by swallowing with a drink of water.
Fasting blood levels of cholesterol, high density lipoprotein (HDL) cholesterol, and triglycerides were measured using Lipid Panel PTS test strips and CardioChek P-A test system (Polymer Technology Systems, Inc., Indianapolis, IN) according to the manufacturer's instructions.

[4] = buccal delivery, 0.5, 1, 2, 4 mg/kg vs 0 mg/kg, FIG. 8, greatest lowering at 0.5 mg/kg

SMILES: CCOC(=O)CCCCCCCC(=O)OCC [DEA, diethyl azelate]
- HDL, increase ([1]; 21-day study, group not stated): 8.7% increase
- LDL/triglycerides ([1]; All (n = 17), D0 0.998): 0.893
- LDL/HDL ([1]; All (n = 17), D0 3.442, P < 0.05): 3.201*
- Triglycerides/HDL ([1]; All (n = 17), D0 3.761): 3.907
- Non-cholesterol HDL/HDL ([1]; All (n = 17), D0 3.799, P < 0.05): 3.549*
- Cholesterol, total/HDL ([1]; All (n = 17), D0 4.806, P < 0.05): 4.553*
- HDL cholesterol ([1]; All (n = 17), D0 32.765): 34.412 mg/dL
- LDL cholesterol ([1]; All (n = 17), D0 93.765): 89.765 mg/dL
- Non-cholesterol HDL ([1]; All (n = 17), D0 117.412): 114.471 mg/dL
- Triglycerides ([1]; All (n = 17), D0 118.588): 124 mg/dL
- Cholesterol, total ([1]; All (n = 17), D0 150.118): 148.882 mg/dL
- LDL/triglycerides ([1]; FPG <100 mg/dL (n = 8), D0 0.861): 0.887
- LDL/HDL ([1]; FPG <100 mg/dL (n = 8), D0 3.082): 2.892
- Non-cholesterol HDL/HDL ([1]; FPG <100 mg/dL (n = 8), D0 3.309): 3.098
- Triglycerides/HDL ([1]; FPG <100 mg/dL (n = 8), D0 3.693): 3.521
- Cholesterol, total/HDL ([1]; FPG <100 mg/dL (n = 8), D0 4.311): 4.089
- HDL cholesterol ([1]; FPG <100 mg/dL (n = 8), D0 31.25): 31.5 mg/dL
- LDL cholesterol ([1]; FPG <100 mg/dL (n = 8), D0 101): 90.75 mg/dL
- Non-cholesterol HDL ([1]; FPG <100 mg/dL (n = 8), D0 111.778): 114.333 mg/dL
- Triglycerides ([1]; FPG <100 mg/dL (n = 8), D0 122.889): 127.667 mg/dL
- Cholesterol, total ([1]; FPG <100 mg/dL (n = 8), D0 154.875): 146.125 mg/dL
- LDL/triglycerides ([1]; FPG >100 mg/dL (n = 9), D0 1.152): 0.9
- Triglycerides/HDL ([1]; FPG >100 mg/dL (n = 9), D0 3.837): 4.342
- LDL/HDL ([1]; FPG >100 mg/dL (n = 9), D0 3.847): 3.549
- Non-cholesterol HDL/HDL ([1]; FPG >100 mg/dL (n = 9), D0 4.349): 4.057
- Cholesterol, total/HDL ([1]; FPG >100 mg/dL (n = 9), D0 5.362): 5.075
- HDL cholesterol ([1]; FPG >100 mg/dL (n = 9), D0 34.111): 37 mg/dL
- LDL cholesterol ([1]; FPG >100 mg/dL (n = 9), D0 105): 103.444 mg/dL
- Triglycerides ([1]; FPG >100 mg/dL (n = 9), D0 113.75): 119.875 mg/dL
- Non-cholesterol HDL ([1]; FPG >100 mg/dL (n = 9), D0 123.75): 114.625 mg/dL
- Cholesterol, total ([1]; FPG >100 mg/dL (n = 9), D0 145.889): 151.333 mg/dL
- LDL/triglycerides ([1]; High A1c (n = 9), D0 0.954): 0.972
- LDL/HDL ([1]; High A1c (n = 9), D0 3.173, P < 0.01): 2.862**
- Non-cholesterol HDL/HDL ([1]; High A1c (n = 9), D0 3.446): 3.108
- Triglycerides/HDL ([1]; High A1c (n = 9), D0 3.481): 3.096
- Cholesterol, total/HDL ([1]; High A1c (n = 9), D0 4.456, P < 0.05): 4.1*
- HDL cholesterol ([1]; High A1c (n = 9), D0 37.889): 41.222 mg/dL
- LDL cholesterol ([1]; High A1c (n = 9), D0 105): 103.444 mg/dL
- Triglycerides ([1]; High A1c (n = 9), D0 129): 125.222 mg/dL
- Non-cholesterol HDL ([1]; High A1c (n = 9), D0 130.667): 128.444 mg/dL
- Cholesterol, total ([1]; High A1c (n = 9), D0 168.444): 169.667 mg/dL
- LDL/triglycerides ([1]; Low A1c (n = 8), D0 1.048): 0.804
- LDL/HDL ([1]; Low A1c (n = 8), D0 3.744): 3.582
- Triglycerides/HDL ([1]; Low A1c (n = 8), D0 4.076): 4.82
- Non-cholesterol HDL/HDL ([1]; Low A1c (n = 8), D0 4.196): 4.046
- Cholesterol, total/HDL ([1]; Low A1c (n = 8), D0 5.2): 5.062
- HDL cholesterol ([1]; Low A1c (n = 8), D0 27): 26.75 mg/dL
- LDL cholesterol ([1]; Low A1c (n = 8), D0 81.125): 74.375 mg/dL
- Non-cholesterol HDL ([1]; Low A1c (n = 8), D0 102.5): 98.75 mg/dL
- Triglycerides ([1]; Low A1c (n = 8), D0 106.875): 122.625 mg/dL
- Cholesterol, total ([1]; Low A1c (n = 8), D0 129.5): 125.5 mg/dL
- LDL, decrease ([1]; all): 4.3%
- decrease of LDL/HDL ([1]; all 17 subjects, p=0.011): 6.46%
- HDL and non-cholesterol HDL ([1]; all subjects): non-significantly affected by the treatment
- Cholesterol/HDL, decrease ([1]; all): 5.4%
- LDL/HDL, decrease ([1]; all): 6.5%
- effect on total cholesterol, LDL, HDL, non-cholesterol HDL, and triglycerides considered singly ([1]; entire cohort): did not exert statistically significant effects on any endpoint considered singly
- decrease of the ratio of total cholesterol/HDL ([1]; entire cohort, p=0.025, p=0.041): 5.36%
- decrease of non-cholesterol HDL/HDL ratio ([1]; entire cohort, p=0.025, p=0.057): 6.6%
- LDL, decrease ([1]; high A1c): 2%
- decrease of median total cholesterol ([1]; high A1c group): 1 mg/dL
- decrease of the ratio of triglycerides/HDL ([1]; high A1c group): 11%
- ratio of triglycerides/HDL post-treatment ([1]; high A1c group, from 3.4): 3.0
- LDL trend ([1]; high A1c group, less so in the low A1c group, normal <100 mg/dL): decreasing trend toward normal values
- decrease of the ratio of total cholesterol/HDL ([1]; high A1c group, p=0.017, p=0.068): 7.99%
- decrease of non-cholesterol HDL/HDL ratio ([1]; high A1c group, p=0.025, p=0.074): 9.8%
- decrease of LDL/HDL ([1]; high A1c subjects, 21-day study (3 weeks), p=0.008): 9.8%
- Cholesterol/HDL, decrease ([1]; high A1c): 8%
- LDL/HDL, decrease ([1]; high A1c): 9.8%
- elevated triglycerides post-treatment ([1]; including two high A1c subjects with abnormal triglycerides >150 before treatment): decreased post-treatment to normal levels in 8 subjects
- increase of the ratio of triglycerides/HDL ([1]; low A1c): 15%
- increase of median total cholesterol ([1]; low A1c group): 9 mg/dL
- ratio of triglycerides/HDL post-treatment ([1]; low A1c, from 3.9): 4.6
- abnormal total cholesterol (>200 mg/dL) post-treatment ([1]; two subjects in the high A1c group): decreased or returned to normal levels
- tolerability of daily oral DEA ([2]; 17 subjects, 21 daily oral doses of 1 mg/kg, 1 mg/kg): well tolerated by all study subjects
- Hypoglycemia ([2]; 21-day study): Neither metformin nor DEA administration as presented herein induced hypoglycemia; also recorded: no effect
- Side effects ([2]; 21-day study): mild transient diarrhea (1/17 subjects)
- adverse effects ([2]; first week of treatment, no other adverse effects reported): only one subject experienced transient mild diarrhea
- improvement in total cholesterol and TC/HDL ratio, buccal relative to gastric delivery ([3]; FIG. 17, T test): statistically significant greater improvement
- HDL levels ([3]; buccal delivery, 0.5, 1, 2, 4 mg/kg vs 0 mg/kg, FIG. 8): increased at all DEA doses tested
- Triglycerides [3, 4]: lowered
- calculated LDL [3, 4]: lowered
- total cholesterol [3, 4]: lowered
- HDL levels ([3]; buccal delivery, all dosages vs 0 mg/kg, FIG. 15): elevated (i.e., improved)
- TC/HDL ratio ([3]; buccal delivery, all tested amounts 0.5-4 mg/kg vs no DEA, FIG. 9, lowered the most with 0.5 mg/kg): lowered (i.e., improved) TC/HDL ratio
- TC, triglyceride, and Calc LDL levels and TC/HDL ratio ([3]; buccal delivery, FIG. 15, more pronounced at 1 mg/kg): lowered (i.e., improved)
- HDL levels ([3]; gastric delivery, all dosages vs 0 mg/kg, FIG. 15): elevated (i.e., improved)
- TC, triglyceride, and Calc LDL levels and TC/HDL ratio ([3]; gastric delivery, FIG. 15, more pronounced at 0.25 mg/kg): lowered (i.e., improved)
